Data reported in PubChem BioAssay AID1919003 (Molecular Pharmacology Branch, DTP, NCI, 2023).

Tested on: 786-0 complex spheroids with HUVEC/MSC, growth % test/control
Experiment: Anticancer human tumor 786-0 cell line growth inhibition [AhR];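 note: compound exposure lasted seven days before the read-out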
Conditions: for IC50: curve of first compound; for viability, T/C: stronger effect = lower value
Source text: Multicellular complex tumor spheroid response to aryl hydrocarbon receptor antagonists in combination with a variety of drugs and investigational agents in selected tumor cell lines
The current study was undertaken to assess response to aryl hydrocarbon receptor antagonists in combination with standard-of-care drugs and investigational agents in solid tumor complex spheroid models. Complex spheroids include a stromal component modeled by human endothelial cells (HUVEC) and fibroblasts modeled by human mesenchymal stem cells (MSCs). The concentration ranges selected for each drug and investigational agent were based upon clinically achievable concentrations if the clinical Cmax of the agent was known.
Compounds. The drugs and investigational agents: BAY 2416964 (NSC825713), GNF351 (NSC835774), CH-223191 (NSC835775), CPI-455 (NSC825282), aza-TdCyd (NSC777586), decitabine (NSC127716), belinostat (NSC758774), entinostat (NSC756642), pevonedistat (NSC761192), tazemetostat (NSC777109), talazoparib (NSC765396), olaparib (NSC753686), selinexor (NSC780203), nedisertib (M3814, NSC802822), bortezomib (NSC756655), venetoclax (NSC766270), doxorubicin (NSC123127), elimusertib (BAY189344, NSC800525), ceralasertib (AZD6738, NSC777638), TAK-243 (NSC785004), alisertib (NSC759677), etoposide (NSC141540), topotecan (NSC609699), eribulin (NSC707389), gemcitabine (NSC613327), carboplatin (NSC241240), cisplatin (NSC119875), and SN-38 (NSC673596) were obtained from the National Cancer Institute (NCI) Developmental Therapeutics Program Chemical Repository (32). The FDA-approved anticancer drug set is available from the Developmental Therapeutics Program at https://dtp.cancer.gov/organization/dscb/obtaining/available plates.htm. […] The stock solutions were prepared in dimethyl sulfoxide (DMSO, Sigma-Aldrich, St. Louis, MO, cat. D2650), except for the platinum compounds which were prepared in saline (Quality Biological, Gaithersburg, MD, cat. 114-055-101), at 800-fold the tested concentration and stored at -70 degrees C prior to their use. All drugs and investigational agents were tested over a range starting from a high concentration at or near the clinical Cmax and decreasing in half-log increments. If the clinical Cmax for an agent had not been determined, the highest concentration tested was 10 microM (Table 1).
Cell Culture. All cells were maintained in an incubator at 37 degrees C and 5% CO2 with 95% humidity. The PDC lines were cultured according to standard operating procedures established by the NCI PDMR (https://pdmr.cancer.gov). Briefly, all PDCs were thawed and cultured in Matrigel-coated flasks prepared with a working solution of 1X Ham's F-12 nutrient mix, without supplementation (Invitrogen, Waltham, MA, cat. 11765054), 100 U/mL penicillin-streptomycin (Invitrogen, cat. 15140122), and 2.5% Matrigel (Corning Inc., Corning, NY, cat. 354248) for the first three passages. All PDCs were cultured in complete DMEM/F-12 media containing advanced DMEM/F-12 (Invitrogen, cat. 12634028), 4.9% defined fetal bovine serum, heat inactivated (HyClone Laboratories Inc., Logan, UT, cat. SH30070.03HI), 389 ng/mL hydrocortisone (Sigma-Aldrich, cat. H4001), 9.7 ng/mL human EGF recombinant protein (Invitrogen, cat. PHG0313), 23.4 microg/mL adenine (Sigma-Aldrich, cat. A2786), 97.3 U/mL penicillin-streptomycin (Invitrogen, cat. 15140122), 1.9 mM L-glutamine (Invitrogen, cat. 25030081), and 9.7 microM Y-27632 dihydrochloride (Tocris Bioscience, Bristol, United Kingdom, cat. 1254). The PDCs were cultured in complete DMEM/F12 media without 10 microM Y-27632 dihydrochloride for at least two passages prior to the screen. The established cell lines NCI-H1341 and […] were cultured in DMEM/F-12, HEPES (Invitrogen, cat. 11330032), 5% defined fetal bovine serum (HyClone Laboratories Inc., cat. SH30070.03), ITS premix universal culture supplement [insulin (5 microg/mL), transferrin (5 microg/mL), and selenious acid (5 ng/mL)] […]

In the case of `CC[C@@]1(O)C(=O)OCc2c1cc1n(c2=O)Cc2cc3c(CN(C)C)c(O)ccc3nc2-1` + Cc1cncc(-c2nc(NCCc3c[nH]c4ccccc34)c3ncn(C(C)C)c3n2)c1, the IC50 (second compound 0.1 µM) is reported as 61.6 nM, the IC50 (second compound 0.316 µM) is reported as 64.2 nM and the IC50 (second compound 1 µM) is reported as 56.1 nM. For the same compound, the IC50 (second compound 3.16 µM) was 28.1 nM, the IC50 (second compound 10 µM) was < 0.316 nM and the viability, T/C (second compound 0.1 µM, first compound 0.000316 µM) was 116%. It also gave a viability, T/C (second compound 0.1 µM, first compound 0.001 µM) of 118%, a viability, T/C (second compound 0.1 µM, first compound 0.00316 µM) of 117% and a viability, T/C (second compound 0.1 µM, first compound 0.01 µM) of 115%. The viability, T/C (second compound 0.1 µM, first compound 0.0316 µM) was 91.1%, the viability, T/C (second compound 0.1 µM, first compound 0.1 µM) was 20.1% and the viability, T/C (second compound 0.316 µM, first compound 0.000316 µM) was 113%. For the same compound, the viability, T/C (second compound 0.316 µM, first compound 0.001 µM) was 107%, the viability, T/C (second compound 0.316 µM, first compound 0.00316 µM) was 119% and the viability, T/C (second compound 0.316 µM, first compound 0.01 µM) was 112%. The viability, T/C (second compound 0.316 µM, first compound 0.0316 µM) was 99%, the viability, T/C (second compound 0.316 µM, first compound 0.1 µM) was 19.2% and the viability, T/C (second compound 1 µM, first compound 0.000316 µM) was 109%. The viability, T/C (second compound 1 µM, first compound 0.001 µM) was 109%, the viability, T/C (second compound 1 µM, first compound 0.00316 µM) was 103% and the viability, T/C (second compound 1 µM, first compound 0.01 µM) was 108%. The viability, T/C (second compound 1 µM, first compound 0.0316 µM) was 83.5%, the viability, T/C (second compound 1 µM, first compound 0.1 µM) was 16% and the viability, T/C (second compound 3.16 µM, first compound 0.000316 µM) was 73.4%. For the same compound, the viability, T/C (second compound 3.16 µM, first compound 0.001 µM) was 78.5%, the viability, T/C (second compound 3.16 µM, first compound 0.00316 µM) was 88.8% and the viability, T/C (second compound 3.16 µM, first compound 0.01 µM) was 83%. For the same compound, the viability, T/C (second compound 3.16 µM, first compound 0.0316 µM) was 46.5%, the viability, T/C (second compound 3.16 µM, first compound 0.1 µM) was 9.39% and the viability, T/C (second compound 10 µM, first compound 0.000316 µM) was 15.5%. For the same compound, the viability, T/C (second compound 10 µM, first compound 0.001 µM) was 11%, the viability, T/C (second compound 10 µM, first compound 0.00316 µM) was 11.8% and the viability, T/C (second compound 10 µM, first compound 0.01 µM) was 4.85%. The viability, T/C (second compound 10 µM, first compound 0.0316 µM) was 1.61% and the viability, T/C (second compound 10 µM, first compound 0.1 µM) was 0.53%.
